# Data published in publication PMC6173502 (2018).
# Key:
# Experiment in all cases: ITC
# [1] = system: BCL2 3-6-2 (DNA, G4) CGGGCACGGGAAAAAAGGGACGGGAAC; conditions: K+ 150 mM (KCl); 20 mM Tris, 1 mM EDTA, 30% DMSO, pH 7.2, 25 °C; mode 1 of 3
# [2] = system: BCL2 3-5-3 (DNA, G4) CGGGCACGGGAAAAAGGGAACGGGAAC; conditions: K+ 150 mM (KCl); 20 mM Tris, 1 mM EDTA, 30% DMSO, pH 7.2, 25 °C; mode 1 of 3
# [3] = system: KRAS 6-4-4 (DNA, G4) GGGCAATATGGGAAAAGGGAAAAGGGAAAA; conditions: K+ 150 mM (KCl); 20 mM Tris, 1 mM EDTA, 30% DMSO, pH 7.2, 25 °C; mode 1 of 3
# [4] = system: KRAS 6-4-6 (DNA, G4) GGGCAATATGGGAAAAGGGAAAAAAGGGAA; conditions: K+ 150 mM (KCl); 20 mM Tris, 1 mM EDTA, 30% DMSO, pH 7.2, 25 °C; mode 1 of 3
# [5] = system: hTel22 (DNA, G4) AGGGTTAGGGTTAGGGTTAGGG; conditions: 20 mM Tris, 1 mM EDTA, 30% DMSO, pH 7.2, 25 °C, mode 1 of 3
smiles,measurement,setting,value
N=C(N)c1ccc(N=NNc2ccc(C(=N)N)cc2)cc1,Ka,[1],41.5 × 10^7
same,Ka,[2],17.5 × 10^7
same,Ka,[3],25.5 × 10^7
same,Ka,[4],3.85 × 10^7
same,Ka,[5]; K+ 150 mM (KCl),13.7 × 10^7
same,Ka,[5]; Na+ 150 mM (NaCl),18.2 × 10^7
